Laboratory results published in ChEMBL document CHEMBL5257100, “Discovery and development of benzene sulfonamide derivatives as anti-hepatic fibrosis agents” (Bioorg Med Chem Lett, 2023).
The source made the active and inactive calls. The calls are words filed in the database; no cut-off is given here.

Legend:
[1] = Anti-hepatic fibrosis activity in human LX2 cells assessed as inhibition of COL1A1 promoter activity at 25 micromol/L by luciferase reporter assay relative to control; format: functional; settings: LX-2, dose 25 µmol/L
LX-2 [2] = assay: Anti-hepatic fibrosis activity in human LX2 cells assessed as inhibition of TGF-beta1 induced COL1A1 mRNA expression at 3 micromol/L incubated for 24 hrs by qPCR analysis; format: functional, cell-based; settings: dose 3.0 µmol/L
LX-2 [3] = assay: Anti-hepatic fibrosis activity in human LX2 cells assessed as inhibition of TGFbeta1-induced COL1A1 protein expression at 3 uM incubated for 24 hrs by western blot analysis; format: functional, cell-based
LX-2 [4] = assay: Anti-hepatic fibrosis activity in human LX2 cells assessed as inhibition of TGFbeta1-induced FN protein expression at 3 uM incubated for 24 hrs by western blot analysis; format: functional, cell-based
LX-2 [5] = assay: Anti-hepatic fibrosis activity in human LX2 cells assessed as inhibition of TGFbeta1-induced alpha-SMA protein expression at 3 uM incubated for 24 hrs by western blot analysis; format: functional, cell-based
LX-2 [6] = assay: Anti-hepatic fibrosis activity in human LX2 cells assessed as inhibition of TGFbeta1-induced TIMP-1 protein expression at 3 uM incubated for 24 hrs by western blot analysis; format: functional, cell-based
LX-2 [7] = assay: Anti-hepatic fibrosis activity in human LX2 cells assessed as inhibition of TGF-beta1 induced MMP-2 mRNA expression at 3 micromol/L incubated for 24 hrs by qPCR analysis; format: functional, cell-based; settings: dose 3.0 µmol/L
LX-2 [8] = assay: Anti-hepatic fibrosis activity in human LX2 cells assessed as inhibition of TGF-beta1 induced intrinsic TGF-beta1 mRNA expression at 3 micromol/L incubated for 24 hrs by qPCR analysis; format: functional, cell-based; settings: dose 3.0 µmol/L
LX-2 [9] = assay: Anti-hepatic fibrosis activity in human LX2 cells assessed as inhibition of TGFbeta1-induced COL1A1 protein expression at 1 uM incubated for 24 hrs by western blot analysis; format: functional, cell-based
LX-2 [10] = assay: Anti-hepatic fibrosis activity in human LX2 cells assessed as inhibition of TGFbeta1-induced FN protein expression at 1 uM incubated for 24 hrs by western blot analysis; format: functional, cell-based
LX-2 [11] = assay: Anti-hepatic fibrosis activity in human LX2 cells assessed as inhibition of TGFbeta1-induced alpha-SMA protein expression at 1 uM incubated for 24 hrs by western blot analysis; format: functional, cell-based
LX-2 [12] = assay: Anti-hepatic fibrosis activity in human LX2 cells assessed as inhibition of TGFbeta1-induced TIMP-1 protein expression at 1 uM incubated for 24 hrs by western blot analysis; format: functional, cell-based
[13] = Cytotoxicity against human LX2 cells assessed as mortality rate at 1 to 30 uM incubated for 24 hrs by Sulfonyl Rhodamine B assay; format: toxicity, cell-based; settings: lx-2, 24 h, dose 1-30 µM
AML12 = assay: Cytotoxicity against mouse AML12 cells assessed as mortality rate at 1 to 30 uM incubated for 24 hrs by Sulfonyl Rhodamine B assay; format: toxicity, cell-based; settings: aml12, 24 h, dose 1-30 µM
[14] = Inhibition of JAK1/STAT1/STAT3 signaling pathway in human LX2 cells assessed as decrease in TGF-beta induced JAK1 phosphorylation level at 1 uM incubated for 24 hrs by Western blot analysis; format: cell-based
[15] = Inhibition of JAK1/STAT1/STAT3 signaling pathway in human LX2 cells assessed as decrease in TGF-beta induced STAT1 phosphorylation level at 1 uM incubated for 24 hrs by Western blot analysis; format: cell-based
[16] = Inhibition of JAK1/STAT1/STAT3 signaling pathway in human LX2 cells assessed as decrease in TGF-beta induced STAT3 phosphorylation level at 1 uM incubated for 24 hrs by Western blot analysis; format: cell-based

| Compound | inhibition at 25 µM [1] [%] | other results |
| --- | --- | --- |
| O=S(=O)(Nc1ccccc1CNc1cc(Cl)c(Cl)c(Cl)c1)c1cccc(Cl)c1 | 33.4 |  |
| O=[N+]([O-])c1cccc(S(=O)(=O)Nc2ccccc2CNc2cc(Cl)c(Cl)c(Cl)c2)c1 | 42.3 | inhibition (LX-2 [2]): Active |
| COc1cccc(S(=O)(=O)Nc2ccccc2CNc2cc(Cl)c(Cl)c(Cl)c2)c1 | 11.9 |  |
| CC[C@H]1[C@@H](O)[C@@H]2[C@H](CC[C@]3(C)[C@@H]([C@H](C)CCC(=O)O)CC[C@@H]23)[C@@]2(C)CC[C@@H](O)C[C@@H]12 [OBETICHOLIC ACID] | 7.9 |  |
| COc1ccc(C(F)(F)F)cc1NC(=O)Nc1ccccc1NS(=O)(=O)c1cccc([N+](=O)[O-])c1 | 20.2 |  |
| O=C(Nc1ccc(Cl)cc1)Nc1ccccc1NS(=O)(=O)c1cccc([N+](=O)[O-])c1 | 21.9 |  |
| O=[N+]([O-])c1ccc(S(=O)(=O)Nc2ccccc2CNc2cc(Cl)ccc2Cl)cc1 | 32.3 | inhibition (LX-2 [2]): Active; inhibition (LX-2 [3]): Active; inhibition (LX-2 [4]): Active; inhibition (LX-2 [5]): Active; inhibition (LX-2 [6]): Active |
| O=C(Nc1ccc(Cl)cc1)Nc1ccccc1NS(=O)(=O)c1ccc([N+](=O)[O-])cc1 | 23.6 |  |
| O=C(Nc1cccc(C(F)(F)F)c1)Nc1ccccc1NS(=O)(=O)c1ccc([N+](=O)[O-])cc1 | 22.9 |  |
| O=C(Nc1ccc(Cl)c(Cl)c1)Nc1ccccc1NS(=O)(=O)c1ccc([N+](=O)[O-])cc1 | 28.5 | inhibition (LX-2 [2]): Active |
| O=S(=O)(Nc1ccccc1CNc1cc(Cl)c(Cl)c(Cl)c1)c1cccc(C(F)(F)F)c1 | 37.3 |  |
| O=C(O[C@@H]1Cc2c(O)cc(O)cc2O[C@@H]1c1cc(O)c(O)c(O)c1)c1cc(O)c(O)c(O)c1 [EPIGALOCATECHIN GALLATE] | 25.3 |  |
| O=S(=O)(Nc1ccccc1CNc1cc(Cl)c(Cl)c(Cl)c1)c1ccc(C(F)(F)F)cc1 | 42.4 |  |
| O=C(Nc1ccccc1NS(=O)(=O)c1cccc([N+](=O)[O-])c1)c1cc(Cl)ccc1Cl | 24.6 |  |
| COc1cccc(S(=O)(=O)Nc2ccccc2NC(=O)Nc2cc(Cl)c(Cl)c(Cl)c2)c1 | 16.9 |  |
| O=[N+]([O-])c1ccc(S(=O)(=O)Nc2ccccc2CNc2ccc(F)c(Cl)c2)cc1 | 34.2 |  |
| O=C(Nc1ccc(Cl)cc1Cl)Nc1ccccc1NS(=O)(=O)c1cccc([N+](=O)[O-])c1 | 29.8 |  |
| O=[N+]([O-])c1cccc(S(=O)(=O)Nc2ccccc2CNc2cc(F)ccc2Cl)c1 | 29.8 |  |
| COc1ccc(NC(=O)Nc2ccccc2NS(=O)(=O)c2cccc([N+](=O)[O-])c2)cc1 | 25.4 |  |
| O=S(=O)(Nc1ccccc1CNc1cc(Cl)c(Cl)c(Cl)c1)c1cccc(OC(F)(F)F)c1 | 33.5 |  |
| O=C(Nc1ccc(Cl)cc1Cl)Nc1ccccc1NS(=O)(=O)c1ccc([N+](=O)[O-])cc1 | 25.8 |  |
| O=C(Nc1ccc(C(F)(F)F)cc1)Nc1ccccc1NS(=O)(=O)c1ccc([N+](=O)[O-])cc1 | 21.3 |  |
| C=C1C(=O)O[C@@H]2/C=C(\C)CC/C=C(\C)CC[C@@H]12 [COSTUNOLIDE] | 45.4 |  |
| O=C(Nc1ccccc1NS(=O)(=O)c1cccc(C(F)(F)F)c1)c1cc(Cl)c(Cl)c(Cl)c1 | 60.7 | inhibition (LX-2 [2]): Active; inhibition (LX-2 [7]): Active; inhibition (LX-2 [8]): Active; inhibition (LX-2 [9]): Active; inhibition (LX-2 [10]): Active; inhibition (LX-2 [11]): Active; inhibition (LX-2 [12]): Active; Activity [13]: Non-Toxic; Activity (AML12): Non-Toxic; inhibition [14]: Active; inhibition [15]: Active; inhibition [16]: Active |
| O=C(Nc1ccccc1NS(=O)(=O)c1ccc([N+](=O)[O-])cc1)c1cc(Cl)ccc1Cl | 26.5 |  |
| Cc1cccc(S(=O)(=O)Nc2ccccc2NC(=O)Nc2cc(Cl)c(Cl)c(Cl)c2)c1 | 24.9 |  |
| COc1ccc(C(=O)Nc2ccccc2NS(=O)(=O)c2cccc([N+](=O)[O-])c2)cc1 | 33.6 |  |

| Compound | inhibition at 25 µM [1] [%] | other results |
| --- | --- | --- |
| O=C(Nc1cc(C(F)(F)F)ccc1Cl)Nc1ccccc1NS(=O)(=O)c1ccc([N+](=O)[O-])cc1 | 39.4 |  |
| Cc1ccc(S(=O)(=O)Nc2ccccc2CNc2cc(Cl)c(Cl)c(Cl)c2)cc1 | 3.4 |  |
| COc1ccc(NC(=O)Nc2ccccc2NS(=O)(=O)c2ccc([N+](=O)[O-])cc2)cc1 | 14.5 |  |
| O=C(Nc1cc(Cl)c(Cl)c(Cl)c1)c1ccccc1NS(=O)(=O)c1cccc([N+](=O)[O-])c1 | 35.9 | inhibition (LX-2 [2]): Active; Activity [13]: Non-Toxic; Activity (AML12): Non-Toxic; inhibition [14]: Active; inhibition [15]: Active; inhibition [16]: Active |
| O=[N+]([O-])c1ccc(S(=O)(=O)Nc2ccccc2CNc2cc(Cl)c(Cl)c(Cl)c2)cc1 | 48.7 | inhibition (LX-2 [2]): Active; inhibition (LX-2 [3]): Active; inhibition (LX-2 [4]): Active; inhibition (LX-2 [5]): Active; inhibition (LX-2 [6]): Active |
| Cc1ccc(NCc2ccccc2NS(=O)(=O)c2cccc([N+](=O)[O-])c2)cc1 | 14.7 |  |
| Cc1cccc(S(=O)(=O)Nc2ccccc2NC(=O)c2cc(Cl)c(Cl)c(Cl)c2)c1 | 15.3 |  |
| COc1cccc(NCc2ccccc2NS(=O)(=O)c2cccc([N+](=O)[O-])c2)c1 | 23.2 |  |
| O=C(Nc1ccc(C(F)(F)F)cc1)Nc1ccccc1NS(=O)(=O)c1cccc([N+](=O)[O-])c1 | 17.8 |  |
| O=C(Nc1ccccc1NS(=O)(=O)c1cccc([N+](=O)[O-])c1)c1ccc(F)c(Cl)c1 | 37.1 |  |
| O=C(Nc1ccccc1NS(=O)(=O)c1ccc([N+](=O)[O-])cc1)c1ccc(Cl)c(Cl)c1 | 49.3 | inhibition (LX-2 [2]): Active; inhibition (LX-2 [3]): Active; inhibition (LX-2 [4]): Active; inhibition (LX-2 [5]): Active; inhibition (LX-2 [6]): Active |
| O=C(Nc1ccc(Cl)c(Cl)c1)Nc1ccccc1NS(=O)(=O)c1cccc([N+](=O)[O-])c1 | 21.6 |  |
| O=[N+]([O-])c1ccc(S(=O)(=O)Nc2ccccc2CNc2cc(F)ccc2Cl)cc1 | 26 | inhibition (LX-2 [3]): Active; inhibition (LX-2 [4]): Active; inhibition (LX-2 [5]): Active; inhibition (LX-2 [6]): Active |
| O=C(Nc1ccccc1NS(=O)(=O)c1ccc([N+](=O)[O-])cc1)c1ccc(Cl)cc1Cl | 33 |  |
| COc1ccc(S(=O)(=O)Nc2ccccc2CNc2cc(Cl)c(Cl)c(Cl)c2)cc1 | 1.2 |  |
| O=C(Nc1ccccc1NS(=O)(=O)c1cccc([N+](=O)[O-])c1)c1ccc(Cl)c(Cl)c1 | 30.9 |  |
| O=[N+]([O-])c1cccc(S(=O)(=O)Nc2ccccc2CNc2ccc(F)c(Cl)c2)c1 | 24.1 |  |
| O=C(Nc1cccc(C(F)(F)F)c1)Nc1ccccc1NS(=O)(=O)c1cccc([N+](=O)[O-])c1 | 22.8 |  |
| O=C(Nc1cc(C(F)(F)F)ccc1Cl)Nc1ccccc1NS(=O)(=O)c1cccc([N+](=O)[O-])c1 | 21.3 |  |
| O=C(Nc1ccc(Cl)cc1Cl)Nc1ccccc1NS(=O)(=O)c1cccc(OC(F)(F)F)c1 | 26.2 |  |
| O=C(Nc1ccccc1NS(=O)(=O)c1cccc([N+](=O)[O-])c1)c1ccc(Cl)cc1Cl | 27.9 |  |
| O=S(=O)(Nc1ccccc1CNc1cc(Cl)c(Cl)c(Cl)c1)c1ccc(Cl)cc1 | 31.7 |  |
| O=[N+]([O-])c1cccc(S(=O)(=O)Nc2ccccc2CNc2cc(Cl)ccc2Cl)c1 | 40 |  |
| COc1ccc(C(F)(F)F)cc1NC(=O)Nc1ccccc1NS(=O)(=O)c1ccc([N+](=O)[O-])cc1 | 21.5 |  |
| COc1cccc(S(=O)(=O)Nc2ccccc2NC(=O)c2cc(Cl)c(Cl)c(Cl)c2)c1 | 1.5 |  |
| O=S(=O)(Nc1ccccc1CNc1cc(Cl)c(Cl)c(Cl)c1)c1ccc(OC(F)(F)F)cc1 | 42.4 |  |
| Cc1cccc(S(=O)(=O)Nc2ccccc2CNc2cc(Cl)c(Cl)c(Cl)c2)c1 | 2.2 |  |
